Each structure is given as a SMILES string.

In one assay the target is Lp(a) assembly in HepG2 cells overexpressing ApoA protein (Homo sapiens (Human), UniProt P08519). Description: ELISA assay on screening Lp(a) assembly inhibition. Format: cell-based.
Chain of Lp(a) assembly in HepG2 cells overexpressing ApoA protein (P08519 20-2040): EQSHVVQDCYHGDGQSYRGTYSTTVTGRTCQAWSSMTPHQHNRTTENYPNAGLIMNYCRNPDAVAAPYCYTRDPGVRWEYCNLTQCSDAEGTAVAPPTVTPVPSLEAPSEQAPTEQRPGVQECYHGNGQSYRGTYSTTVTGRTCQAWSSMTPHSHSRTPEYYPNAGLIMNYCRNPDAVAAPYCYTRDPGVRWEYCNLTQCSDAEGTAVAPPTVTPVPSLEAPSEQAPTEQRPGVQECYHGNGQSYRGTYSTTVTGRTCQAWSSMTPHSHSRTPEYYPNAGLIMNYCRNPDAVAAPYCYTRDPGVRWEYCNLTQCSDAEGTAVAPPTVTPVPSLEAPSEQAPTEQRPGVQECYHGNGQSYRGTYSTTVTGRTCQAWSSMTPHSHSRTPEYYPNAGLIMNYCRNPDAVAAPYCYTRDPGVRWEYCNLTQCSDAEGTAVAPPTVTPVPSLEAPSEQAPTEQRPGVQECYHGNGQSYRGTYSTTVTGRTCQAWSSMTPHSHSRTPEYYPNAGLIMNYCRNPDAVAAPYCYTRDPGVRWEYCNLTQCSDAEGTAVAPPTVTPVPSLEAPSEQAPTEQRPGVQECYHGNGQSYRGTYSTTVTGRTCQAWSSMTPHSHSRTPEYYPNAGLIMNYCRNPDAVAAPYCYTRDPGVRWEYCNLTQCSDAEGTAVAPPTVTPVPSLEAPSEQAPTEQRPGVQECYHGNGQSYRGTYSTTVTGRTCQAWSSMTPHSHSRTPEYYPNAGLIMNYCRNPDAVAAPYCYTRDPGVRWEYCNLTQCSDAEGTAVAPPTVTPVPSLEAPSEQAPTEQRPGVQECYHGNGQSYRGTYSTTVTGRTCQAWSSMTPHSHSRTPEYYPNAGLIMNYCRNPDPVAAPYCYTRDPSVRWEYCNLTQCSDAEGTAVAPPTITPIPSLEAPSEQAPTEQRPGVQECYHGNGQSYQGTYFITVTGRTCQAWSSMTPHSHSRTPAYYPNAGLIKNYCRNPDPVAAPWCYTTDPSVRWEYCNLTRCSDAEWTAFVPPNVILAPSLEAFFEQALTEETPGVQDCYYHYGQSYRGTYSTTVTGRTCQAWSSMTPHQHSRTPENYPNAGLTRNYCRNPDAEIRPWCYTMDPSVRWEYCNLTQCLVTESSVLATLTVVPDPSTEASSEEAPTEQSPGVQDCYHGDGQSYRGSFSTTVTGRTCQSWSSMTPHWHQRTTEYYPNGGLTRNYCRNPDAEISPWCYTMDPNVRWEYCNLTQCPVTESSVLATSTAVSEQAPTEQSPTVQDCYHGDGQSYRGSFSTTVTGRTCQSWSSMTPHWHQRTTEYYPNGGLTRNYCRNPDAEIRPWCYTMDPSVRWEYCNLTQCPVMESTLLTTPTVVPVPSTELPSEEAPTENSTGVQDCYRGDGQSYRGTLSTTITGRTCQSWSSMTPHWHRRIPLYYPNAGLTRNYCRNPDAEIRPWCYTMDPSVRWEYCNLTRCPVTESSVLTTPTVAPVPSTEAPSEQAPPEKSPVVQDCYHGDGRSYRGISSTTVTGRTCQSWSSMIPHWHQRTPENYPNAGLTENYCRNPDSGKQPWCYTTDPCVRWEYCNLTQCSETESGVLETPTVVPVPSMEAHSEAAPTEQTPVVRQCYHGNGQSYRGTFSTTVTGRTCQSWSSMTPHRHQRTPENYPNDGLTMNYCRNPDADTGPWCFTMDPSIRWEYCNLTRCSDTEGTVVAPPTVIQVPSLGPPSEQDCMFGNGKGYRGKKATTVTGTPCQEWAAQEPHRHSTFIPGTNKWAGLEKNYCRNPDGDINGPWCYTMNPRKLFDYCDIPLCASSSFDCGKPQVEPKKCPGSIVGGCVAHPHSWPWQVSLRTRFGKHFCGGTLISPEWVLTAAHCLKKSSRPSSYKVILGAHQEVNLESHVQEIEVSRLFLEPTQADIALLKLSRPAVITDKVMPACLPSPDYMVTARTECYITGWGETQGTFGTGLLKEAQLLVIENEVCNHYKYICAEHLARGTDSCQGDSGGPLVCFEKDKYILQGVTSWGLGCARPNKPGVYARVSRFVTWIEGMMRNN
Conditions: not given
As for the experimental part: Test Example 1 and Methods of ELISA Assay on Screening Lp(a) Assembly Inhibition
• 1) Preheated the culture media, DPBS, and pancreatin in a 37° C. water bath in advance. • 2) Digested cells with pancreatin, transferred the cell suspension to a 15 mL centrifuge tube, and centrifuged at 1000 rpm for 5 min. • 3) Resuspended the cells with culture media and transferred the cell suspension to a new T75 cell culture flask. • 4) Cultured at 37° C. in a 5% CO2 incubator.
• 1) Seeded HepG2 cells overexpressing of ApoA protein into a 96-well plate at 100 μL per well and incubated overnight for attachment. • 2) Replaced with fresh culture media the next day, then added diluted compounds, and cultured the cell plate in a 5% CO2, 37° C. incubator for 24 h.
• 1) Added 10 μL of 1.5 M EACA to each well. • 2) Centrifuged at 1000 rpm for 1 min, and transferred 100 μL of cell culture supernatant to a pre-coated ELISA plate.
• 1) Added 100 μL of capture antibody to each well of a pre-coated ELISA plate and incubated overnight at 25° C. • 2) Added 300 μL of washing solution to each well and washed 5 times for 1 min each time. • 3) Added 100 μL of blocking solution to each well and incubated at 25° C. for 2 h. • 4) Added 300 μL of washing solution to each well and washed 5 times for 1 min each time. • 5) Added 100 μL of sample to each well and incubated at 25° C. for 1 h. • 6) Added 300 μL of washing solution to each well and washed 5 times for 1 min each time. • 7) Added 100 μL of detection antibody to each well and incubated at 25° C. for 1 h. • 8) Added 300 μL of washing solution to each well and washed 5 times for 1 min each time. • 9) Added 100 μL substrate solution (Color Reagent A: Color Reagent B, 1:1) to each well and incubated for 20 min at 25° C. in the dark. • 10) Added […] of stop solution to each well, gently blowed and sucked several times with the pipette tip, and read within 5 min.
[formula] • X: cpd concentration • Y: inhibition % • Top and Bottom: Plateaus in same units as Y • log IC50: same log units as X • HillSlope: Slope factor or Hill slope
What is called IC50 is the concentration needed to halve the response being measured. Low readings indicate inhibition by little substance, high ones a need for much substance. For the molecule `O=C(O)[C@@H](Cc1ncc(CN(Cc2cnc(C[C@H](C(=O)O)[C@H]3CCNC3)s2)Cc2cnc(C[C@H](C(=O)O)[C@H]3CCNC3)s2)s1)[C@H]1CCNC1` [Compound 121, (2S,2′S,2″S)-3,3′,3″-((nitrilotris(methylene))tris(thiazole-5,2-diyl))tris(2-((R)-pyrrolidin-3-yl)propanoic acid)], half-maximal inhibition (IC50) was put at 1.53 nM.

Staying with this assay, now noted: HepG2 cells overexpressing ApoA protein, 24 h, ELISA of supernatant.
In the case of `O=C(O)[C@@H](Cc1cc2ccc(CN(Cc3ccc4cc(C[C@H](C(=O)O)[C@H]5CCNC5)sc4c3)Cc3ccc4cc(C[C@H](C(=O)O)[C@H]5CCNC5)sc4c3)cc2s1)[C@H]1CCNC1` [Compound 103, (2S,2′S,2″S)-3,3′,3″-((nitrilotris(methylene))tris(benzo[b]thiophene-6,2-diyl))tris(2-((R)-pyrrolidin-3-yl)propanoic acid)], the IC50 came to 2.11 nM.
Same read-out and setting: in the case of `O=C(O)[C@@H](Cc1cc2cc(CN(Cc3ccc4sc(C[C@H](C(=O)O)[C@H]5CCNC5)cc4c3)Cc3ccc4sc(C[C@H](C(=O)O)[C@H]5CCNC5)cc4c3)ccc2s1)[C@H]1CCNC1` [Compound 104, (2S,2′S,2″S)-3,3′,3″-((nitrilotris(methylene))tris(benzo[b]thiophene-5,2-diyl))tris(2-((R)-pyrrolidin-3-yl)propanoic acid)] it was 1.04 nM.
As for `O=C(O)[C@@H](Cc1cccc(CCN(CCOc2cccc(C[C@H](C(=O)O)[C@H]3CCNC3)c2)C(=O)c2cccc(C[C@H](C(=O)O)[C@H]3CCNC3)c2)c1)[C@H]1CCNC1` [Compound 106, (S)-3-(3-(2-(3-((S)-2-carboxy-2-((R)-pyrrolidin-3-yl)ethyl)-N-(2-(3-((S)-2-carboxy-2-((R)-pyrrolidin-3-yl)ethyl)phenoxy)ethyl)benzamido)ethyl)phenyl)-2-((R)-pyrrolidin-3-yl)propanoic acid], inhibition was half-maximal at 1.84 nM (IC50).
`O=C(O)[C@@H](Cc1cccc(CCN(CCc2cccc(C[C@H](C(=O)O)[C@H]3CCNC3)c2)C(=O)Cc2cccc(C[C@H](C(=O)O)[C@H]3CCNC3)c2)c1)[C@H]1CCNC1` [Compound 107, (2S,2′S)-3,3′-((((2-(3-((S)-2-carboxy-2-((R)-pyrrolidin-3-yl)ethyl)phenyl)acetyl)azanediyl)bis(ethane-2,1-diyl))bis(3,1-phenylene))bis(2-((R)-pyrrolidin-3-yl)propanoic acid)]: it took 1.66 nM to reach half-maximal inhibition (IC50). This IC50 and that of the molecule before are within 1.5-fold of each other.
The same measure, in the same setting: in the case of `O=C(O)[C@@H](Cc1cccc(CCN(CCc2cccc(C[C@H](C(=O)O)[C@H]3CCNC3)c2)C(=O)c2cccc(C[C@H](C(=O)O)[C@H]3CCNC3)c2)c1)[C@H]1CCNC1` [Compound 108, (2S,2′S)-3,3′-((((3-((S)-2-carboxy-2-((R)-pyrrolidin-3-yl)ethyl)benzoyl)azanediyl)bis(ethane-2,1-diyl))bis(3,1-phenylene))bis(2-((R)-pyrrolidin-3-yl)propanoic acid)] it was 1.16 nM; in that of `O=C(CN(CCOc1cccc(C[C@H](C(=O)O)[C@H]2CCNC2)c1)CCOc1cccc(C[C@H](C(=O)O)[C@H]2CCNC2)c1)c1cccc(C[C@H](C(=O)O)[C@H]2CCNC2)c1` [Compound 112, (2S,2′S)-3,3′-(((((2-(3-((S)-2-carboxy-2-((R)-pyrrolidin-3-yl)ethyl)phenyl)-2-oxoethyl)azanediyl)bis(ethane-2,1-diyl))bis(oxy))bis(3,1-phenylene))bis(2-((R)-pyrrolidin-3-yl)propanoic acid)], 3.4 nM; in that of `O=C(O)[C@@H](Cc1cccc(CN2CCN(Cc3cccc(C[C@H](C(=O)O)[C@H]4CCNC4)c3)CC2)c1)[C@H]1CCNC1` [Compound 117, (2S,2′S)-3,3′-((piperazine-1,4-diylbis(methylene))bis(3,1-phenylene))bis(2-((R)-pyrrolidin-3-yl)propanoic acid)], 2.58 nM.
As for `O=C(O)[C@@H](Cc1cccc(COc2cc(OCc3cccc(C[C@H](C(=O)O)[C@H]4CCNC4)c3)cc(OCc3cccc(C[C@H](C(=O)O)[C@H]4CCNC4)c3)c2)c1)[C@H]1CCNC1` [Compound 122, (2S,2′S,2″S)-3,3′,3″-(((benzene-1,3,5-triyltris(oxy))tris(methylene))tris(benzene-3,1-diyl))tris(2-((R)-pyrrolidin-3-yl)propanoic acid)], inhibition was half-maximal at 1.87 nM (IC50).
In the case of `O=C(O)[C@@H](Cc1cccc(CN(Cc2cccc(C[C@H](C(=O)O)[C@H]3CCNC3)c2)Cc2ccc3oc(C[C@H](C(=O)O)[C@H]4CCNC4)cc3c2)c1)[C@H]1CCNC1` [Compound 126, (2S,2′S)-3,3′-(((((2-((S)-2-carboxy-2-((R)-pyrrolidin-3-yl)ethyl)benzofuran-5-yl)methyl)azanediyl)bis(methylene))bis(3,1-phenylene))bis(2-((R)-pyrrolidin-3-yl)propanoic acid)], half-maximal inhibition (IC50) was put at 1.26 nM.
Molecule `O=C(O)[C@@H](Cc1csc2ccc(CN(Cc3ccc4scc(C[C@H](C(=O)O)[C@H]5CCNC5)c4c3)Cc3ccc4scc(C[C@H](C(=O)O)[C@H]5CCNC5)c4c3)cc12)[C@H]1CCNC1` [Compound 128, (2S,2′S,2″S)-3,3′,3″-((nitrilotris(methylene))tris(benzo[b]thiophene-5,3-diyl))tris(2-((R)-pyrrolidin-3-yl)propanoic acid)] showed an IC50 of 1.34 nM.
`O=C(CN(Cc1cccc(C[C@H](C(=O)O)[C@H]2CCNC2)c1)Cc1cccc(C[C@H](C(=O)O)[C@H]2CCNC2)c1)c1cccc(C[C@H](C(=O)O)[C@H]2CCNC2)c1` [Compound 130, (2S,2′S)-3,3′-((((2-(3-((S)-2-carboxy-2-((R)-pyrrolidin-3-yl)ethyl)phenyl)-2-oxoethyl)azanediyl)bis(methylene))bis(3,1-phenylene))bis(2-((R)-pyrrolidin-3-yl)propanoic acid)] yielded a half-maximal inhibitory concentration (IC50) of 1.45 nM.
Same read-out and setting: in the case of `O=C(O)[C@@H](Cc1cccc(COCC2CN(Cc3cccc(C[C@H](C(=O)O)[C@H]4CCNC4)c3)CCN2Cc2cccc(C[C@H](C(=O)O)[C@H]3CCNC3)c2)c1)[C@H]1CCNC1` (stereo partly drawn) [Compound 132, (2S,2′S)-3,3′-(((2-(((3-((S)-2-carboxy-2-((R)-pyrrolidin-3-yl)ethyl)benzyl)oxy)methyl)piperazine-1,4-diyl)bis(methylene))bis(3,1-phenylene))bis(2-((R)-pyrrolidin-3-yl)propanoic acid)] it was 0.88 nM; in that of `Cn1c(C[C@H](C(=O)O)[C@H]2CCNC2)nc2ccc(CN(Cc3ccc4nc(C[C@H](C(=O)O)[C@H]5CCNC5)n(C)c4c3)Cc3ccc4nc(C[C@H](C(=O)O)[C@H]5CCNC5)n(C)c4c3)cc21` [Compound 133, (2S,2′S,2″S)-3,3′,3″-((nitrilotris(methylene))tris(1-methyl-1H-benzo[d]imidazole-6,2-diyl))tris(2-((R)-pyrrolidin-3-yl)propanoic acid)], 0.94 nM; in that of `O=C(O)[C@@H](Cc1cccc(CN(CCOc2cccc(C[C@H](C(=O)O)[C@H]3CCNC3)c2)C(=O)CNc2cccc(C[C@H](C(=O)O)[C@H]3CCNC3)c2)c1)[C@H]1CCNC1` [Compound 134, (S)-3-(3-((2-((3-((S)-2-carboxy-2-((R)-pyrrolidin-3-yl)ethyl)benzyl)(2-(3-((S)-2-carboxy-2-((R)-pyrrolidin-3-yl)ethyl)phenoxy)ethyl)amino)-2-oxoethyl)amino)phenyl)-2-((R)-pyrrolidin-3-yl)propanoic acid], 0.85 nM.
As to `O=C(O)[C@@H](Cc1cccc(CN(CCOc2cccc(C[C@H](C(=O)O)[C@H]3CCNC3)c2)C(=O)COc2cccc(C[C@H](C(=O)O)[C@H]3CCNC3)c2)c1)[C@H]1CCNC1` [Compound 135, (S)-3-(3-(2-((3-((S)-2-carboxy-2-((R)-pyrrolidin-3-yl)ethyl)benzyl)(2-(3-((S)-2-carboxy-2-((R)-pyrrolidin-3-yl)ethyl)phenoxy)ethyl)amino)-2-oxoethoxy)phenyl)-2-((R)-pyrrolidin-3-yl)propanoic acid], the half-inhibitory concentration (IC50) came to 0.71 nM.
Regarding `O=C(O)[C@@H](Cc1csc(CN(Cc2cc(C[C@H](C(=O)O)[C@H]3CCNC3)cs2)Cc2cc(C[C@H](C(=O)O)[C@H]3CCNC3)cs2)c1)[C@H]1CCNC1` [Compound 137, (2S,2′S,2″S)-3,3′,3″-((nitrilotris(methylene))tris(thiophene-5,3-diyl))tris(2-((R)-pyrrolidin-3-yl)propanoic acid)], the IC50 came to 1.08 nM.
For `O=C(O)[C@@H](Cc1cccc(CN(CCOc2cccc(C[C@H](C(=O)O)[C@H]3CCNC3)c2)C(=O)Oc2cccc(C[C@H](C(=O)O)[C@H]3CCNC3)c2)c1)[C@H]1CCNC1` [Compound 139, (S)-3-(3-(2-((3-((S)-2-carboxy-2-((R)-pyrrolidin-3-yl)ethyl)benzyl)((3-((S)-2-carboxy-2-((R)-pyrrolidin-3-yl)ethyl)phenoxy)carbonyl)amino)ethoxy)phenyl)-2-((R)-pyrrolidin-3-yl)propanoic acid], the IC50 came to 0.66 nM. Compared with the last molecule, the IC50 is about 1.6-fold lower.

(Values after US20250179055A1, “Substituted 2-(pyrrolidine-3-yl)acetic acid derivative, preparation method and use thereof” (INNOVSTONE THERAPEUTICS LIMITED, priority 2023, published 2025).)
